{"source": "patent US20090036437A1", "about": "“PHARMACEUTICAL COMPOSITION COMPRISING PHENOXAZINIUM COMPOUND AS AN ACTIVE INGREDIENT” (priority 2005, published 2009)", "key": {"[1]": {"test_system": "Plasmodium berghei NK65 strain", "experiment": "in vivo treatment test by oral administration into mouse infected with malaria", "settings": "for Cure rate (%) / life-elongation effect: oral; for Cure rate (%): 5 days after infection", "description": "This test was carried out in accordance with 4-day suppressive test that is a general in vivo test for the activity of an anti-malaria compound. Rodent malaria protozoa (Plasmodium berghei NK65 strain) were used in this test. Infected blood was prepared by infection with intraperitoneal administration into ICR male mouse (5 weeks age; SPF) and passage culture (subculture) thereafter. Blood was drawn from the vein of a tail of the moue infected with malaria, and its infection ratio was determined. After it was confirmed that the infection ratio had been increased up to an appropriated level (10˜20%), the blood infected with malaria was drawn from the heart of the mouse. The infection ratio and number (cells/mL) of erythrocytes were determined. An uninfected mouse (ICR male, 5 weeks age) was then infected with an injection of the infected erythrocytes so diluted with PBS as to comprise the protozoa of […] per dose (0.2 mL) into the vein of its tail.\nA test sample was prepared by dissolving the test compounds according to the present invention into physiologic saline (Otsuka Pharmaceuticals Industries) to a predetermined concentration. In the case where the compound was insoluble in water, it was dissolved into DMSO or Tween 20 to prepare the test sample. A control group (no drug-administration group) was treated only with physiologic saline. Weight of the mouse was determined so that a dose would comprise 5.0 mg per 1 kg of its weight.\nOne group consisted of five mice. The intraperitoneal administration of the test sample started after two hours from the infection with malaria and continued for successive 4 days with a 24-hour interval. After 24 hours from the last administration, blood was drawn from the tail of the infected mouse to prepare a thin-layer smear, and the number of the erythrocytes infected with the malaria protozoa under a microscope with respect to the control group and the test sample groups. Parasitemia, i.e., the infection ratio with the malaria protozoa, was obtained by calculating an average value of the medium three mice except the two mice showing a maximum or minimum inhibition level. A cure rate (suppression) was then calculated from the resulting parasitemia in accordance with the following equation.\nCure rate: suppression (%)=(b−a)/b×100 • a: Infection ratio of the test sample group; and • b: Infection ratio of the control group.\nThe cure rate (%) of the mice after 5 days from the infection with malaria and the treatment with A-1 (60% purity) according to Example 5 (25-100 mg/kg/day, through the oral administration) were shown in TABLE 6. The oral administration, starting after two hours from the infection with malaria, consisted of four times with a 24-hour interval, 12 times with 8-hour interval or single dose.\nThe cure rate (%) of the mice after 5 days from the infection with malaria and the treatment with A-1 (100 mg/kg/day, through the oral administration of four times with a 24-hour interval or singe dose) were shown in TABLE 7."}, "[2]": {"experiment": "in vitro growth-inhibiting assay of rat L6 cells", "type": "cell-based", "settings": "rat, L6 cells (rat skeletal myoblast cells); Table 3; 72 h, Alamar Blue; read-out: 50% growth-inhibiting concentration (nM) cytotoxicity L6"}}, "note": "Marks after values point to notes of the source that are not given here.", "data": [{"smiles": "CCN(CC)c1ccc2nc3ccc(=[N+](CC)CC)cc-3oc2c1.[Cl-]", "note": "[A-1 (60% purity)]", "values": [{"measurement": "mice still alive after 30 days", "setting": "[1]; oral 100 mg/kg four times with a 24-hour interval, one mouse died on day 21", "value": "three mice of the four mice"}, {"measurement": "presence of the protozoa of malaria in blood of surviving mice after 36 days", "setting": "[1]; oral 100 mg/kg four times with a 24-hour interval, three surviving mice", "value": "No protozoa of malaria was shown to be present in the blood"}, {"measurement": "Cure rate (%)", "setting": "[1]; 12 times with 8-hour interval, 15 mg/kg/dose", "value": ">99.99", "unit": "%"}, {"measurement": "life-elongation effect", "setting": "[1]; all treatments of Table 6", "value": "significant life-elongation effect"}, {"measurement": "Cure rate (%)", "setting": "[1]; four times with a 24-hour interval, 25 mg/kg/dose", "value": 82.3, "unit": "%"}, {"measurement": "Cure rate (%)", "setting": "[1]; four times with a 24-hour interval, 50 mg/kg/dose", "value": 98.6, "unit": "%"}, {"measurement": "Cure rate (%)", "setting": "[1]; four times with a 24-hour interval, 90 mg/kg/dose", "value": ">99.99", "unit": "%"}, {"measurement": "Cure rate (%)", "setting": "[1]; four times with a 24-hour interval, 100 mg/kg/dose, one of five mice died due to technical error", "value": ">99.99* %"}, {"measurement": "Cure rate (%)", "setting": "[1]; single administration, 100 mg/kg/dose", "value": ">99.99", "unit": "%"}]}, {"smiles": "CCN(CC)c1ccc2nc3ccc(=[N+](CC)CC)cc-3oc2c1.[Cl-]", "note": "[A-1 (>95% purity)]", "values": [{"measurement": "Cure rate (%)", "setting": "[1]; Table 7, four times with 24-hour interval, 100 mg/kg/dose", "value": ">99.99", "unit": "%"}, {"measurement": "Cure rate (%)", "setting": "[1]; Table 7, single administration, 100 mg/kg/dose", "value": 78.3, "unit": "%"}, {"measurement": "life-elongation effect", "setting": "[1]; all treatments of Table 7", "value": "significant life-elongation effect"}]}, {"smiles": "CC[N+](CC)=c1ccc2nc3ccc(N(C)C)cc3oc-2c1", "note": "[Compound A-4]", "values": [{"measurement": "EC50 at 72 h", "setting": "[2]", "value": 4690, "unit": "nM"}]}]}
